From patent US7208176B2, “Drug delivery device containing neuraminidase inhibitor and an H1 antagonist” (Osmotica Corp., priority 2001, dated 2007)

Columns and labels:
in vivo = conditions: po
[1] = cited from earlier work
[2] = cited from earlier work; remark: listed apart in the source

Compound	Tmax (in vivo)	half-life (in vivo)	steady-state plasma trough concentrations versus minimum inhibitory concentration ([1]; 75 mg twice daily)	metabolite clearance in renal impairment ([1]; human, in vivo)	absolute bioavailability of the active metabolite ([1]; in vivo, po)	time to maximal concentrations ([1]; in vivo, po)	time until detectable in plasma ([1]; in vivo, po)	accumulation ([1]; in vivo)	apparent half-life ([1]; in vivo)	exposure at steady state, higher in elderly compared with young individuals ([1]; in vivo)	time to steady-state plasma concentrations ([1]; in vivo)	absorption and conversion after oral administration ([1]; oral, G. He et al.)	median serum half-life ([2]; Cass et al.)	dose systemically absorbed (median) ([2]; in vivo)	excreted unchanged in the urine ([2]; in vivo)	time to maximum serum concentrations ([2]; in vivo)	tolerability ([2]; in vivo)
CCC(CC)O[C@@H]1C=C(C(=O)O)C[C@H](N)[C@H]1NC(C)=O [Active metabolite of oseltamivir, oseltamivir carboxylate]	8 h	14 h	remain above the minimum inhibitory concentration for all influenza strains tested	decreases linearly with creatinine clearance	about 80%	3 to 4 h	≤ 30 min	less than 2 fold	6 to 10 h	approximately 25%	≤ 3 days						
CCOC(=O)C1=C[C@@H](OC(CC)CC)[C@H](NC(C)=O)[C@@H](N)C1 [Oseltamivir, reference compound]	3 h	5 to 7 h										readily absorbed from the gastrointestinal tract and extensively converted to the active metabolite					
CC(=O)N[C@H]1[C@H]([C@H](O)[C@H](O)CO)OC(C(=O)O)=C[C@@H]1N=C(N)N [zanamivir, 4-guanidino-2,4-dideoxy-2,3-dehydro-N-acetylneuraminic acid]													2.5 and 5.05 hours	10 to 20%	approximately 90%	1 to 2 h	well tolerated at all doses
